Where two headings read alike, the source gives them in different places.
Tests used:
[1] = Mouse Liver Microsome (MLM) Stability Assay; type: in vitro ADME; details: for microsomal CLint / MLM Clearance (μL/min/mg protein): mouse liver microsomes
Protocol: 5. Mouse Liver Microsome (MLM) Stability Assay
Incubation of test compounds with mouse liver microsomes in the presence of NADPH co-factor was used to assay the in vitro mouse liver microsome metabolic clearance rate. In the presence of the co-factor NADPH, which initiates the reaction, mouse liver microsomes were incubated with test compounds at 37° C. at fixed time intervals. After centrifugation, supernatants were measured by LC/M S. The amount of compound at each time interval was compared to the amount of compound present at the 0 minute timepoint and percentage compound remaining values were calculated. MLM intrinsic clearance (Clint) (μL/min/mg protein) is calculated based on compound half-life.

Rac1 [2] = target: T1, Rac1 (Homo sapiens (Human), UniProt P63000); assay: Rac Activation AlphaScreen Assay (RacI AS); type: biochemical
Protocol: 2. Rac Activation AlphaScreen Assay (RacI AS)
AlphaScreen® assays were performed in 96-well microplates in a final reaction volume of 60 μL. Recombinant His-Rac1, recombinant GST-PBD (PAK Binding Domain), donor and acceptor beads (PerkinElmer), and inhibitors were incubated in exchange buffer (20 mM Tris pH 7.5, 50 mM NaCl, 1 mM MgCl2, 1 mM EDTA, 500 nM GTPyS (guanosine 5′-[Y-thio]triphosphate)) at 37° C. Readings were performed on a Tecan M 1000 pro microplate reader after 1 hour. Data was analyzed using the GraphPad Prism software (GraphPad Software, Inc.), and IC50 (dose leading to 50% disruption of complex) was calculated from the dose-response curves.

[3] = test system: MCF-7 human breast cancer cell line; assay: Cell Viability Assay (MCF7); type: cell-based; details: MCF7, three days after drug treatment
Protocol: 1. Cell Viability Assay (MCF7)
In order to determine a compound's effect on cell viability, PrestoBlue assays were performed as previously described by Kuhn et al. (2013) with modifications. MCF-7 human breast cancer and IGR-1 human melanoma cell lines were seeded into 384-well plates 24 hours prior to addition of drug. Cells are treated with 0 to 100 μM (concentrations) of compound solubilized in DMSO, adjusting the final concentration of DMSO to 0.5% in the well. Three days after drug treatment, cell viability was measured by adding Cell Titer Glo (Promega.; cat. No. G7570) according to the manufacturer's instructions. Briefly, Cell Titer Glo Substrate is diluted in Cell Titer Glo Buffer making the Cell Titer Glo Reagent. Cell Titer Glo Reagent is added to each well, mixed for 2 minutes to lyse cell, and then luficerase signal is read on a plate reader. Data is analyzed using the GraphPad Prism software (GraphPad Software, Inc.), and IC50 (dose leading to 50% cell death) was calculated from the dose-response curves. The percentage of living cells was then computed by comparison with control wells. Kuhn, Jonas et al., Assay and Drug Development Technologies, March 2013, Label-Free Cytotoxicity Screening Assay by Digital Holographic Microscopy.

c-M et = c-M et (Homo sapiens (Human), UniProt P08581); assay: commercial kinase screen (KinaseScan by Eurofins Discovery), c-Met; type: binding; details: at a concentration that was substantially inhibitory for Rac1
Chain of c-M et (P08581 25-1390): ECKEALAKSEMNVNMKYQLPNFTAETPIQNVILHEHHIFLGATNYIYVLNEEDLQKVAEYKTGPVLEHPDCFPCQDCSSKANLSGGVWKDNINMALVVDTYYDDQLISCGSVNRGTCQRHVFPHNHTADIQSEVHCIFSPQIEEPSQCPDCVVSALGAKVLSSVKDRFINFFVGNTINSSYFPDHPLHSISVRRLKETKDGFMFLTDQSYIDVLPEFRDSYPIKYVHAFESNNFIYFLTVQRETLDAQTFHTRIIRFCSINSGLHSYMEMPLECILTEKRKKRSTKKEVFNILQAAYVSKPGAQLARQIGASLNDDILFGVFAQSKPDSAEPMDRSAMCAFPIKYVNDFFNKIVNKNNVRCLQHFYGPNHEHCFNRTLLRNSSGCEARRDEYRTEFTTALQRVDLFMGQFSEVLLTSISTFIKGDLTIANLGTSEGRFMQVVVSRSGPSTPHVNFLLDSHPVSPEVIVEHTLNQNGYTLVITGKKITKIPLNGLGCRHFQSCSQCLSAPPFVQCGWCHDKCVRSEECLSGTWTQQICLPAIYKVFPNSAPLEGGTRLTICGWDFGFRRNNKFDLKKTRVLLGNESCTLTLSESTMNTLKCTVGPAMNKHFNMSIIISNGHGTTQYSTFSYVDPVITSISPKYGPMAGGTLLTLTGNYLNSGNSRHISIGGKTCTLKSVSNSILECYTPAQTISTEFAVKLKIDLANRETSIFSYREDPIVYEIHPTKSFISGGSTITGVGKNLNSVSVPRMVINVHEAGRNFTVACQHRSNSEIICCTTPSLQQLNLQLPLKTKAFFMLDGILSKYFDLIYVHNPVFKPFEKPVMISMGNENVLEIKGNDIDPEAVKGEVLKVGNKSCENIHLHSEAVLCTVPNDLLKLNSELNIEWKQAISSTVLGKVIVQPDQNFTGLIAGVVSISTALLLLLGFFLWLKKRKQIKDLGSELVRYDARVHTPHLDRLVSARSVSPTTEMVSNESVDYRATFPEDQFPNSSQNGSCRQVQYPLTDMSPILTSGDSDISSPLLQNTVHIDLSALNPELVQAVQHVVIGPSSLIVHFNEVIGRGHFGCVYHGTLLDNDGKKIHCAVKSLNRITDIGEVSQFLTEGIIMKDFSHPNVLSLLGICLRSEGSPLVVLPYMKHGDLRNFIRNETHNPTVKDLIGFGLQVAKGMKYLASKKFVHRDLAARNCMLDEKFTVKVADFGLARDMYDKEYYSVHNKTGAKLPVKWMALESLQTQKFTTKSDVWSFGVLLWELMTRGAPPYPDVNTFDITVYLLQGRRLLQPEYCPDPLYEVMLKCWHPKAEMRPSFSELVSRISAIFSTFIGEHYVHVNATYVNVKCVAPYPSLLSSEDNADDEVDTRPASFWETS
Protocol: (§1) The disclosed compounds in general have no or minimal activity against c-M et. Representative compounds were tested in a commercial kinase screen of over 90 kinases (KinaseScan by Eurofins Discovery).

over 90 kinases = assay: commercial kinase screen (KinaseScan by Eurofins Discovery); type: binding; details: at a concentration that was substantially inhibitory for Rac1
Protocol: as §1

Rac = Rac (Homo sapiens (Human), UniProt P63000); details: versus NSC23766; cited from earlier work
[4] = oral administration in mice; cited from earlier work
Rac1 [5] = target: T1, Rac1; assay: Rac Activation AlphaScreen Assay (RacI AS); type: biochemical; details: wild type Rac1, AlphaLisa assay; read-out: IC50 inhibitory concentration versus wild type Rac1
[6] = test system: estrogen positive and HER2 positive breast cancer, prostate cancer, melanoma and colorectal cancer; details: single agent and in combination with standard of care; cited from earlier work
[7] = NADPH, 37° C., read-out: MLM Clearance (μL/min/mg protein)
[8] = Table 1, Formula I-A, read-out: Activity
[9] = Table 2, Formula I-B, read-out: IC50
[10] = Table 3, other compounds of Formula I, read-out: IC50
[11] = Table 4, comparator compounds, read-out: IC50

| Structure (SMILES) | IC50 (Rac1 [2]; [8]) [nM] | IC50 (Rac1 [2]; read-out: Rac1 IC50) [nM] | IC50 [3] [nM] | other results |
| --- | --- | --- | --- | --- |
| Cc1ccc(-c2nnc3ccc(-c4cccc(NC(=O)c5ccc(F)c(Cl)c5)c4)nn23)o1 [Compound 103, 3-chloro-4-fluoro-N-(3-(3-(5-methylfuran-2-yl)-[1,2,4]triazolo[4,3-b]pyridazin-6-yl)phenyl)benzamide] | ≤ 1000 | 430 | – | microsomal CLint [1, 7]: 4.5 µL/min/mg; IC50 ([3]; Homo sapiens, 72 h): 2300 nM |
| Cc1ccc(-c2nnc3ccc(-c4cccc(NC(=O)c5ccc(F)c(F)c5)c4)nn23)o1 [Compound 106] | ≤ 1000 | 270 | 3500 | MLM clearance [1]: below 50 μL/min/mg protein; MLM Clearance (μL/min/mg protein) ([1]; NADPH, 37° C.): 28.2 μL/min/mg protein |
| Cc1ccc(-c2nnc3ccc(-c4cccc(NC(=O)c5cccc(F)c5)c4)nn23)o1 [Compound 105] | ≤ 1000 | 150 | 2000 | MLM Clearance (μL/min/mg protein) ([1]; NADPH, 37° C.): 38.7 μL/min/mg protein |
| CCc1cccc(C(=O)Nc2cccc(-c3ccc4nnc(-c5ccc(C)o5)n4n3)c2)c1 [Compound 111, 3-ethyl-N-(3-(3-(5-methylfuran-2-yl)-[1,2,4]triazolo[4,3-b]pyridazin-6-yl)phenyl) benzamide] | ≤ 1000 | – | – | MLM clearance [1]: below 50 μL/min/mg protein |
| Cc1ccc(-c2nnc3ccc(-c4cccc(NC(=O)c5cccc(Cl)c5)c4)nn23)o1 [Compound 102, 3-chloro-N-(3-(3-(5-methylfuran-2-yl)-[1,2,4]triazolo[4,3-b]pyridazin-6-yl)phenyl)benzamide] | ≤ 1000 | 520 | – | activity against c-Met (c-M et): inactive; microsomal CLint [1, 7]: 19.7 µL/min/mg; activity against all kinases tested (over 90 kinases): inactive; IC50 ([3]; Homo sapiens, 72 h): 1400 nM |
| COc1cccc(C(=O)Nc2cccc(-c3ccc4nnc(-c5cncs5)n4n3)c2)c1 [Compound 200] | – | 240 | 1800 | MLM Clearance (μL/min/mg protein) ([1]; NADPH, 37° C.): 54 μL/min/mg protein; IC50 (Rac1 [2]; [9]): ≤ 1000 nM |
| Cc1ccc(-c2nnc3ccc(-c4cccc(NC(=O)c5ccc(F)cc5)c4)nn23)s1 [Compound 304] | – | 690 | 19800 | IC50 (Rac1 [2]; [10]): ≤ 1000 nM |
| CCn1c2ccccc2c2cc(Nc3ccnc(NCCCN4CCOCC4)n3)ccc21 [EHop-016] | – | – | – | efficiency as an inhibitor of Rac activity relative to NSC23766 (Rac): 100 fold; systemic exposure [4]: low systemic exposure; IC50 (Rac1 [5]): ~10000 nM |
| Cc1ccc(-c2nnc3ccc(-c4cccc(NC(=O)c5cccc(Cl)c5)c4)nn23)s1 [Compound 303] | – | > 5000 | > 10000 | IC50 (Rac1 [2]; [10]): 1000 to 10000 nM |
| COc1cc(C(=O)Nc2cccc(-c3ccc4nnc(-c5ccc(C)o5)n4n3)c2)cc(OC)c1OC [Comparator 2, reference compound] | – | > 5000 | – | IC50 (Rac1 [2]; [11]): > 10000 nM |
| Cc1ccc(-c2nnc3ccc(-c4cccc(NC(=O)c5cccc(SC(C)C)c5)c4)nn23)o1 [Compound 109, 3-(isopropylthio)-N-(3-(3-(5-methylfuran-2-yl)-[1,2,4]triazolo[4,3-b]pyridazin-6-yl)phenyl)benzamide] | ≤ 1000 | – | – | – |
| O=C(Nc1cccc(-c2ccc3nnc(-c4cncs4)n3n2)c1)c1ccc(F)cc1 [Compound 201, 4-fluoro-N-(3-(3-(thiazol-5-yl)-[1,2,4]triazolo[4,3-b]pyridazin-6-yl)phenyl)benzamide] | – | 170 | – | microsomal CLint [1, 7]: 15.5 µL/min/mg; IC50 (Rac1 [2]; [9]): ≤ 1000 nM; IC50 ([3]; Homo sapiens, 72 h): 3100 nM |
| Cc1ccc(-c2nnc3ccc(-c4cccc(NC(=O)c5cccc(Cl)c5)c4)nn23)o1 [Compound 119, 3-chloro-N-(3-(3-(5-(methyl-d3)furan-2-yl)-[1,2,4]triazolo[4,3-b]pyridazin-6-yl)phenyl) benzamide] | – | 1500 | 6300 | – |
| COc1ccc(OC)c(C(=O)Nc2cccc(-c3ccc4nnc(-c5ccc(C)o5)n4n3)c2)c1 [Comparator 3, reference compound] | – | > 5000 | – | IC50 (Rac1 [2]; [11]): > 10000 nM |
| CCc1cc(C(=O)Nc2cccc(-c3ccc4nnc(-c5ccc(C)o5)n4n3)c2)ccc1F [Compound 114, 3-ethyl-4-fluoro-N-(3-(3-(5-methylfuran-2-yl)-[1,2,4]triazolo[4,3-b]pyridazin-6-yl)phenyl)benzamide] | ≤ 1000 | – | – | microsomal CLint ([1]; mouse, read-out: MLM clearance): < 50 µL/min/mg |
| FC(F)(F)c1ccc2c(SCCCCCCn3cnc(CN4CCOCC4)c3)ccnc2c1 [GY S32661] | – | – | – | activity against animal models of cancer [6]: very good activity |
| COc1ccc(C(=O)Nc2cccc(-c3ccc4nnc(-c5ccc(C)o5)n4n3)c2)cc1OC [Comparator 1, reference compound] | – | > 5000 | – | IC50 (Rac1 [2]; [11]): 1000 to 10000 nM |
| COc1cccc(C(=O)Nc2cccc(-c3ccc4nnc(-c5ccc(C)o5)n4n3)c2)c1 [Compound 100] | ≤ 1000 | 80 | 11300 | – |
